Source: ChEMBL document CHEMBL3885861, “Open TG-GATES”

Species: Rattus norvegicus
Experiment: Open TG-GATES - Regimen: Single
Type: toxicity, organism-based, Sprague-Dawley
Design: regimen Single, gender Male, age 6 weeks
Details: in vivo, po, route gavage; for TC / TG / TP / gamma-GTP / ALP / ALT / AST / BUN / CRE / Ca / Cl / DBIL / GLC / K / LDH / Na / RALB / TBIL / IP / PL: tissue Plasma; for APTT / Bas / Eos / Fbg / Hb / Ht / Lym / MCH / MCHC / Mono / Neu / PT / Plat / RBC / Ret / WBC / MCV: tissue Blood; for KIDNEY_L / KIDNEY_R / KIDNEY_TOTAL: tissue Kidney; for LIVER: tissue Liver
[1] = 1000 mg/kg, 24 h, dose level Middle
[2] = 2000 mg/kg, 3 h, dose level High
[3] = 2000 mg/kg, 6 h, dose level High
[4] = 2000 mg/kg, 9 h, dose level High
[5] = 2000 mg/kg, 24 h, dose level High

CCOc1ccc(NC(C)=O)cc1 [PHENACETIN]
TC [1]: 97.2 mg/dL
TG [1]: 92.4 mg/dL
TP [1]: 5.6 g/dL
gamma-GTP [1]: 1.2 IU/L
TERMINAL_BW [2]: 214.4 g
APTT [2]: 17.5 s
Bas [2]: 0%
Eos [2]: 1%
Fbg [2]: 307.2 mg/dL
Hb [2]: 13.9 g/dL
Ht [2]: 41%
Lym [2]: 76.8%
MCH [2]: 21.2 pg
MCHC [2]: 33.8%
Mono [2]: 2.8%
Neu [2]: 19%
PT [2]: 14.2 s
Plat [2]: 115.4 x10_4/uL
RBC [2]: 652.4 x10_4/ul
Ret [2]: 9%
WBC [2]: 60.2 x10_2/uL
KIDNEY_L [2]: 0.9 g
KIDNEY_R [2]: 1 g
KIDNEY_TOTAL [2]: 1.9 g
LIVER [2]: 9.2 g
ALP [2]: 1540.4 IU/L
ALT [2]: 39.8 IU/L
AST [2]: 70.4 IU/L
BUN [2]: 10.2 mg/dL
CRE [2]: 0.1 mg/dL
Ca [2]: 11 mg/dL
Cl [2]: 99.4 meq/L
DBIL [2]: 0 mg/dL
GLC [2]: 240.4 mg/dL
K [2]: 3.7 meq/L
LDH [2]: 78 IU/L
Na [2]: 139 meq/L
RALB [2]: 2.6 g/dL
TBIL [2]: 0.034 mg/dL
TG [2]: 47.4 mg/dL
TP [2]: 5.5 g/dL
gamma-GTP [2]: 1 IU/L
TERMINAL_BW [3]: 209.5 g
Bas [3]: 0%
Eos [3]: 0.4%
Fbg [3]: 308.8 mg/dL
Ht [3]: 40.1%
Lym [3]: 74.2%
MCH [3]: 21.2 pg
MCV [3]: 61.4 fL
Mono [3]: 2.2%
PT [3]: 14.2 s
Plat [3]: 115.7 x10_4/uL
RBC [3]: 653.8 x10_4/ul
Ret [3]: 8.4%
WBC [3]: 47.7 x10_2/uL
KIDNEY_L [3]: 0.9 g
KIDNEY_R [3]: 0.9 g
KIDNEY_TOTAL [3]: 1.8 g
LIVER [3]: 9.1 g
ALP [3]: 1249 IU/L
ALT [3]: 45.6 IU/L
AST [3]: 84 IU/L
BUN [3]: 10.2 mg/dL
CRE [3]: 0.1 mg/dL
Ca [3]: 11.1 mg/dL
Cl [3]: 103 meq/L
DBIL [3]: 0 mg/dL
GLC [3]: 192.2 mg/dL
IP [3]: 9.9 mg/dL
K [3]: 3.8 meq/L
LDH [3]: 93.2 IU/L
Na [3]: 139.2 meq/L
PL [3]: 136.4 mg/dL
RALB [3]: 2.7 g/dL
TBIL [3]: 0.032 mg/dL
TC [3]: 83.8 mg/dL
TP [3]: 5.6 g/dL
gamma-GTP [3]: 1.2 IU/L
TERMINAL_BW [4]: 210.8 g
APTT [4]: 16.8 s
Bas [4]: 0%
Eos [4]: 0.4%
Fbg [4]: 288.4 mg/dL
Hb [4]: 13.3 g/dL
Ht [4]: 38.1%
Lym [4]: 73.6%
MCH [4]: 20.9 pg
MCHC [4]: 35%
MCV [4]: 59.8 fL
Mono [4]: 3.2%
Neu [4]: 22%
PT [4]: 14.3 s
Plat [4]: 123.9 x10_4/uL
RBC [4]: 638.6 x10_4/ul
Ret [4]: 8.7%
WBC [4]: 54.6 x10_2/uL
KIDNEY_L [4]: 0.9 g
KIDNEY_R [4]: 0.9 g
KIDNEY_TOTAL [4]: 1.8 g
LIVER [4]: 9 g
ALP [4]: 1259 IU/L
ALT [4]: 40.6 IU/L
AST [4]: 70.8 IU/L
BUN [4]: 10.2 mg/dL
CRE [4]: 0.1 mg/dL
Ca [4]: 10.9 mg/dL
Cl [4]: 101.2 meq/L
DBIL [4]: 0 mg/dL
GLC [4]: 205.6 mg/dL
IP [4]: 9.1 mg/dL
K [4]: 3.6 meq/L
LDH [4]: 66.8 IU/L
Na [4]: 137.6 meq/L
PL [4]: 163 mg/dL
RALB [4]: 2.5 g/dL
TBIL [4]: 0.034 mg/dL
TC [4]: 99.6 mg/dL
TG [4]: 18 mg/dL
TP [4]: 5.5 g/dL
gamma-GTP [4]: 1.6 IU/L
TERMINAL_BW [5]: 193.2 g
APTT [5]: 18.2 s
Bas [5]: 0.6%
Eos [5]: 0.6%
Fbg [5]: 273.4 mg/dL
Hb [5]: 14.2 g/dL
Ht [5]: 41.5%
Lym [5]: 75%
MCH [5]: 20.8 pg
MCHC [5]: 34.2%
MCV [5]: 60.7 fL
Mono [5]: 2.6%
Neu [5]: 20.8%
PT [5]: 14.5 s
Plat [5]: 138.6 x10_4/uL
RBC [5]: 684.2 x10_4/ul
Ret [5]: 7.5%
WBC [5]: 70 x10_2/uL
KIDNEY_L [5]: 0.9 g
KIDNEY_R [5]: 1 g
KIDNEY_TOTAL [5]: 1.9 g
LIVER [5]: 7.5 g
ALP [5]: 1341.4 IU/L
ALT [5]: 44.8 IU/L
AST [5]: 115 IU/L
BUN [5]: 12 mg/dL
CRE [5]: 0.2 mg/dL
Ca [5]: 10.7 mg/dL
Cl [5]: 104.2 meq/L
DBIL [5]: 0.024 mg/dL
GLC [5]: 171.2 mg/dL
IP [5]: 9.6 mg/dL
K [5]: 4.3 meq/L
LDH [5]: 206 IU/L
Na [5]: 140.8 meq/L
PL [5]: 150.6 mg/dL
RALB [5]: 2.7 g/dL
TBIL [5]: 0.046 mg/dL
TC [5]: 90.4 mg/dL
TG [5]: 52.6 mg/dL
TP [5]: 5.7 g/dL
gamma-GTP [5]: 1 IU/L
